{"source": "patent US20220017877A1", "about": "“BILIRUBIN OXIDASE ACTIVITY IMPROVING METHOD, AND BILIRUBIN OXIDASE PRODUCT” (OZEKI CORPORATION, priority 2018, published 2022)", "key": {"[1]": {"assay": "ABTS initial absorbance (A436) reduction rate (Test Example 3)", "assay_type": "physicochemical", "settings": "for A436 reduction rate (%): in one minute at 25° C., 1 mM (single compound) or 0.011 g nitrogen element in 100 mL (composition), pH 8.5; for change of ABTS initial absorbance: reaction solution A, FIG. 2", "text": "In the present specification, the absorbance of a solution containing ABTS (ABTS solution), at a wavelength of 436 nm, is defined as an ABTS initial absorbance (A436). In the present specification, the ABTS initial absorbance (A436) reduction rate (%) of the activity improving agent is defined to be a reduction rate (%) of the absorbance of a mixed solution, which contains the above ABTS solution and the above activity improving agent, at a wavelength of 436 nm in one minute, with respect to the ABTS initial absorbance (A436) (100%). Note that the ABTS solution is a solution in which the concentration of ABTS is adjusted such that the absorbance (A436) at a wavelength of 436 nm is approximately 1.3 at an optical path length of 1.0 cm. The value “approximately 1.3” here is intended to mean a value in a range in which 1.3 is obtained by rounding the value to the first decimal place. Test Examples described later will explain specific methods for measuring the absorbance (A436) of the ABTS solution at a wavelength of 436 nm and the ABTS initial absorbance (A436) reduction rate (%) of the activity improving agent. ABTS is an abbreviation for 2,2′-azinobis(3-ethylbenzothiazoline-6-sulfonic acid).\nIn the present activity improving method, when the ABTS initial absorbance (A436) reduction rate (%) of the activity improving agent is measured, the concentration of the activity improving agent in the ABTS solution for measurement is set as follows: (a) the concentration is set to 1 mM, when the molecular weight of the activity improving agent is evident as in a case where the activity improving agent is made of a single compound; and (b) when the activity improving agent is a substance which is made of a composition having an inevident molecular weight, the content of nitrogen element is used as a reference and the concentration is set such that the content of nitrogen element derived from the activity improving agent is 0.011 g in 100 mL of the ABTS solution for measurement. Note that, in the above (b), the content of nitrogen element derived from the activity improving agent in the ABTS solution is a value calculated by the Kjeldahl method.\nThe following describes a specific evaluation method. ABTS employed was an ABTS manufactured by Roche Diagnostics K.K. Further, the ABTS was dissolved in a 50 mM glycine-KOH (pH 8.5) buffer so that the concentration of the ABTS became 2.0 mg/mL. An ABTS solution was thus prepared. The absorbance of the ABTS solution at a wavelength of 436 nm (ABTS initial absorbance (A436)) was measured at an optical path length of 1.0 cm, by using a molecular absorption spectrometer Spectra Max Plus 384 (manufactured by Molecular Devices Japan K.K.). As a result the absorbance was approximately 1.3. Next, 5 μL of an activity improving agent solution or a comparative substance solution was added to 195 μL of the ABTS solution, so that a reaction solution for evaluating ABTS (hereinafter, also referred to as “reaction solution A”) was prepared. […]"}, "[2]": {"biological_target": "T1, recombinant BOD (bilirubin oxidase) derived from Myrothecium verrucaria MT-1 (Albifimbria verrucaria, UniProt Q12737)", "T1 construct": "made in house; host or cells: Aspergillus sp", "T1 sequence (Q12737 39-572)": "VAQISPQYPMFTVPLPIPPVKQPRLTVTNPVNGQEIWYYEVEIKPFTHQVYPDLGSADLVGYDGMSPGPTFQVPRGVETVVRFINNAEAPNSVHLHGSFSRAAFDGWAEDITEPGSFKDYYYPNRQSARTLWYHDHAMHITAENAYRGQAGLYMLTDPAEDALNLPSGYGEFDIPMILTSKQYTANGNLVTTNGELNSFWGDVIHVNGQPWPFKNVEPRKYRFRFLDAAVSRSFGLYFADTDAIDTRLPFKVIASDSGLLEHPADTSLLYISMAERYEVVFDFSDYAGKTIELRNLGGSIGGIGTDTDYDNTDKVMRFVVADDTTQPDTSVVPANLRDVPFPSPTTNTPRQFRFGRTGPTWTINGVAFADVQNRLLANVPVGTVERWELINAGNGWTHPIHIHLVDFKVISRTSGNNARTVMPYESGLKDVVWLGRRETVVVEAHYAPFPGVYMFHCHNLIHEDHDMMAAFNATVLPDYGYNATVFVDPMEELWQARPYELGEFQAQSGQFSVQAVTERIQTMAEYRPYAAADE", "assay": "BOD activity after leaving the BOD solution with an activity improving agent or comparative substance at 30° C. in a deoxygenated atmosphere (Test Example 1)", "assay_type": "biochemical", "settings": "for Activity (%) Day 47: left 47 days at 30° C.; for Activity (%) Day 47 / Activity (%) Day 14: relative to Day 0, additive concentration as in Table 1; for Activity (%) Day 0: 30° C., additive concentration as in Table 1; for Activity (%) Day 14: left 14 days at 30° C.", "description": "A BOD solution, which contains: a BOD; and the present activity improving agent or a comparative substance, was left in an environment at a temperature of 30° C. in a deoxygenated atmosphere for a certain period of time. After the BOD solution was left as above, improvement of the BOD activity by the present activity improving method was evaluated by measurement of the BOD activity.\nIn Test Example 1, a BOD gene derived from a Myrothecium verrucaria MT-1 (GenBank accession number: D12579.1) was introduced into an Aspergillus sp., and then a recombinant BOD (hereinafter, also referred to simply as “BOD”) expressed in the Aspergillus sp. was purified by using a well-known technique and then used as the BOD. The BOD gene derived from the Myrothecium verrucaria MT-1 was codon-optimized in accordance with a gene sequence of the Aspergillus sp., and then introduced into the Aspergillus sp. Further, the BOD thus purified was dissolved in a 50 mM glycine-KOH (pH 8.5) buffer so that the concentration of the BOD became 1.0 mg/mL. Then, a resultant solution was used as a BOD enzyme solution.\nThe enzymatic activity of the BOD was measured as follows. To 1780 μL of a 50 mM potassium phosphate buffer (pH 6.5), 200 μL of a 20 mM ABTS substrate solution was added, so that a mixed solution (1980 μL) was prepared. This mixed solution was incubated for 1 min at 37° C. Thereafter, 20 μL of a solution containing the BOD (specifically, a BOD solution for evaluation, which will be described later) was added to the mixed solution, and a resultant mixed solution (2 mL) was incubated at 37° C. While the mixed solution was incubated, the absorbance of the mixed solution at a wavelength of 436 nm was measured immediately after that addition of the BOD solution for evaluation (at 0 seconds) and thereafter every 20 seconds. On the basis of (i) the absorbance of the mixed solution at a wavelength of 436 nm immediately after the addition of the BOD solution for evaluation and (ii) the absorbance of the mixed solution at a wavelength of 436 nm after a lapse of 1 minute from the addition of the BOD solution for evaluation, calculation was carried out for obtaining an increase rate per minute of the absorbance of the mixed solution at a wavelength of 436 nm after the addition of the BOD solution for evaluation. The BOD activity (unit) in the BOD solution for evaluation was calculated from the increase rate. In the present specification, the amount of enzyme for oxidizing 1 μmol of ABTS per minute was defined as one unit.\nA specific test method of Test Example 1 is as follows. To a BOD enzyme solution containing a BOD, one of the above-described present activity improving agents was added, so that a BOD solution (which is the BOD solution according to an embodiment of the present invention) was prepared. Further, one of the above-described comparative substances was added to the BOD enzyme solution, so that another BOD solution was prepared. In addition, still another BOD solution was prepared by adding, to the BOD enzyme solution, distilled water in place of the activity improving agent or the comparative substance, so that a control (denoted as Without additive in Tables 1 to 3) was prepared. The final concentration of the activity improving agent or the comparative substance in each of the above BOD solutions was shown in “mM” or “percentage (%)” (amount (g) of the activity improving agent or the comparative substance relative to 100 mL of the BOD solution) in Table 1.\nThereafter, one of these BOD solutions and a deoxygenating agent (Anaero Pack manufactured by Mitsubishi Gas Chemical Company, Inc.) were included in one container. Then, the container was sealed, so that a BOD container was prepared. The BOD container was left in an environment at a temperature of 30° C. in a deoxygenated atmosphere for 47 days (Table 2) or 14 days (Table 3). […]"}, "[3]": {"settings": "Day 0 (start of leaving, set to 100%) of the 14-day test"}, "[4]": {"settings": "Day 0 (start of leaving, set to 100%)"}}, "note": "Structures can show the parent of a compound that is named as a salt.", "data": [{"smiles": "O[C@H](CS)[C@H](O)CS", "note": "(racemic) [DTT, dithiothreitol, reference compound]", "values": [{"measurement": "A436 reduction rate (%)", "setting": "[1]", "value": 87.81, "unit": "%"}, {"measurement": "Activity (%) Day 47", "setting": "[2]", "value": 0, "unit": "%"}]}, {"smiles": "N.N.O=S(=O)(O)O", "note": "[Ammonium sulfate, ammonium sulfate, reference compound]", "values": [{"measurement": "A436 reduction rate (%)", "setting": "[1]", "value": 0.00, "unit": "%"}, {"measurement": "change of ABTS initial absorbance", "setting": "[1]", "value": "does not change"}, {"measurement": "Activity (%) Day 0", "setting": "[2]; [3]", "value": 100, "unit": "%"}, {"measurement": "Activity (%) Day 14", "setting": "[2]", "value": 65, "unit": "%"}]}, {"smiles": "N.O=C(O)CS", "note": "[Ammonium thioglycolate, ammonium thioglycolate, reference compound]", "values": [{"measurement": "A436 reduction rate (%)", "setting": "[1]", "value": 87.81, "unit": "%"}, {"measurement": "Activity (%) Day 0", "setting": "[2]; [4]", "value": 100, "unit": "%"}, {"measurement": "Activity (%) Day 47", "setting": "[2]", "value": 0, "unit": "%"}]}, {"smiles": "NCCS", "note": "[Cysteamine hydrochloride, cysteamine hydrochloride, reference compound]", "values": [{"measurement": "A436 reduction rate (%)", "setting": "[1]", "value": 87.81, "unit": "%"}, {"measurement": "Activity (%) Day 47", "setting": "[2]", "value": 1, "unit": "%"}]}, {"smiles": "O=C(CS)OCC(O)CO", "note": "(stereo not shown) [GMT, glyceryl monothioglycolate, reference compound]", "values": [{"measurement": "A436 reduction rate (%)", "setting": "[1]", "value": 87.81, "unit": "%"}, {"measurement": "Activity (%) Day 47", "setting": "[2]", "value": 1, "unit": "%"}]}, {"smiles": "N[C@@H](CCC(=O)N[C@@H](CS)C(=O)NCC(=O)O)C(=O)O", "note": "[Glutathione (reduced form), glutathione (reduced form)]", "values": [{"measurement": "A436 reduction rate (%)", "setting": "[1]", "value": 87.81, "unit": "%"}, {"measurement": "Activity (%) Day 0", "setting": "[2]; [4]", "value": 100, "unit": "%"}, {"measurement": "Activity (%) Day 47", "setting": "[2]", "value": 113, "unit": "%"}]}, {"smiles": "O=CC(=O)O", "note": "[Glyoxylic acid, glyoxylic acid]", "values": [{"measurement": "A436 reduction rate (%)", "setting": "[1]", "value": 0.33, "unit": "%"}, {"measurement": "Activity (%) Day 14", "setting": "[2]", "value": 194, "unit": "%"}]}, {"smiles": "Cl.N[C@@H](CS)C(=O)O", "note": "[L-cysteine hydrochloride]", "values": [{"measurement": "A436 reduction rate (%)", "setting": "[1]", "value": 87.81, "unit": "%"}, {"measurement": "Activity (%) Day 47", "setting": "[2]", "value": 130, "unit": "%"}]}, {"smiles": "CC(=O)N[C@@H](CS)C(=O)O", "note": "[N-acetyl-L-cysteine]", "values": [{"measurement": "A436 reduction rate (%)", "setting": "[1]", "value": 87.81, "unit": "%"}, {"measurement": "Activity (%) Day 47", "setting": "[2]", "value": 122, "unit": "%"}]}, {"smiles": "O=S([O-])[O-].[Na+].[Na+]", "note": "[Sodium sulfite, sodium sulfite]", "values": [{"measurement": "A436 reduction rate (%)", "setting": "[1]", "value": 87.81, "unit": "%"}, {"measurement": "Activity (%) Day 0", "setting": "[2]; [4]", "value": 100, "unit": "%"}, {"measurement": "Activity (%) Day 47", "setting": "[2]", "value": 162, "unit": "%"}]}, {"smiles": "Cc1c(C)c2c(c(C)c1O)CCC(C)(C(=O)O)O2", "note": "(stereo not shown) [Trolox]", "values": [{"measurement": "A436 reduction rate (%)", "setting": "[1]", "value": 83.90, "unit": "%"}, {"measurement": "Activity (%) Day 47", "setting": "[2]", "value": 251, "unit": "%"}]}, {"smiles": "NC(N)=O", "note": "[Urea, urea, reference compound]", "values": [{"measurement": "A436 reduction rate (%)", "setting": "[1]", "value": 0.00, "unit": "%"}, {"measurement": "change of ABTS initial absorbance", "setting": "[1]", "value": "does not change"}, {"measurement": "Activity (%) Day 0", "setting": "[2]; [3]", "value": 100, "unit": "%"}, {"measurement": "Activity (%) Day 14", "setting": "[2]", "value": 56, "unit": "%"}]}]}
